{"source": "paper PMC8401923", "about": "“Processing Impact on In Vitro and In Vivo Performance of Solid Dispersions—A Comparison between Hot-Melt Extrusion and Spray Drying” (Pharmaceutics, 2021)", "type_in_all_cases": "physicochemical", "key": {"pKa of posaconazole": {"assay": "pKa of posaconazole", "text": "(§1) Table 1 Physical/chemical properties of posaconazole."}, "Log P of posaconazole": {"assay": "Log P of posaconazole", "text": "as §1"}, "[1]": {"assay": "Solubility of crystalline posaconazole"}, "[2]": {"assay": "Two-stage biorelevant dissolution (SGF then FaSSIF)", "description": "Simulated gastric fluid (SGF) was made with sodium chloride (34.2 mM), and the pH was adjusted to 1.8 with 12N HCl. The 2× fasted state simulated intestinal fluid (FaSSIF) was prepared using simulated intestinal fluid (SIF) powder (purchased from Biorelevant.com Ltd., London, UK), sodium phosphate monobasic monohydrate (114.5 mM), and sodium chloride (423.7 mM), and the pH was adjusted to 6.9 [35, 36].\nTwo-stage dissolution was performed on the solid dispersion powder at the dose relevant level of drug quantity using the Distek Model 2500 dissolution system (North Brunswick, NJ USA) with USP Apparatus 2 (paddles) setup. The paddles were operated at 100 rpm, and the dissolution medium was maintained at 37 ± 0.5 °C. The SGF medium of 250 mL was added for the first stage, and then FaSSIF medium of 250 mL at 30 min was added for the second stage to achieve the correct pH, ionic strength, and bile salt levels for FaSSIF. The time points that the sample was withdrawn were indicated by the dots in the dissolution plots. At each time point, ~2 mL was sampled and syringe-filtered (0.45 µm PVDF filter). The filtrate was diluted with diluent (water:acetonitrile = 1:1 v/v) and analyzed by an Agilent HPLC (Santa Clara, CA, USA) with a UV detector. […]"}, "XPS surface composition": {"assay": "XPS surface composition", "details": "25% bulk drug loading with HPMCAS", "description": "X-ray Photoelectron Spectroscopy (XPS). XPS experiments were performed using a Physical Electronics Quantera SXM instrument equipped with a monochromatic Al Kα x-ray source (hν = 1486.6 eV) and a concentric hemispherical analyzer. Charge neutralization was performed using low energy (1.5 eV) electrons and low energy (8 V) Ar^+ ions. The binding energy axis was calibrated using sputter cleaned Cu foil (Cu 2p3/2 = 932.62 eV) and Au foil (Au 4f7/2 = 83.96 eV). Spectra were charge references to C-(C,H) at 284.8 eV. All measurements were performed at an electron takeoff angle of 45° relative to the sample platen plane."}}, "note": "Read-outs that look alike come from different tables or passages of the source."}
{"smiles": "CC[C@@H]([C@H](C)O)n1ncn(-c2ccc(N3CCN(c4ccc(OC[C@@H]5CO[C@@](Cn6cncn6)(c6ccc(F)cc6F)C5)cc4)CC3)cc2)c1=O", "note": "[posaconazole]", "values": [{"measurement": "pKa", "setting": "pKa of posaconazole; piperazine N", "value": 3.6}, {"measurement": "pKa", "setting": "pKa of posaconazole; triazole N", "value": 4.6}, {"measurement": "logP", "setting": "Log P of posaconazole", "value": 5}, {"measurement": "solubility", "setting": "[1]; fasted state simulated intestinal fluid (FaSSIF), fassif, read-out: Solubility", "value": 2, "unit": "µg/mL"}, {"measurement": "solubility", "setting": "[1]; pH 1, read-out: Solubility", "value": 790, "unit": "µg/mL"}, {"measurement": "solubility", "setting": "[1]; pH 3, read-out: Solubility", "value": 3, "unit": "µg/mL"}, {"measurement": "solubility", "setting": "[1]; pH 7, read-out: Solubility", "value": 1, "unit": "µg/mL"}, {"measurement": "solubility", "setting": "[1]; simulated gastric fluid (SGF), pH 1.8, read-out: crystalline solubility", "value": "~790", "unit": "µg/mL"}, {"measurement": "drug release in SGF stage (in words)", "setting": "[2]; SGF pH 1.8, first 30 min", "value": "the percent dissolved is high"}, {"measurement": "drug release in FaSSIF stage (in words)", "setting": "[2]; second stage, FaSSIF", "value": "significantly drops to approximately the crystalline solubility"}, {"measurement": "~API Loading on Surface Based on F and N", "setting": "XPS surface composition", "value": "~100", "unit": "%"}]}
